PubChem BioAssay (NCI)
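Values below derive from 48-hour exposures of cells grown in 96-well plates, with endpoints linearly interpolated between the two concentrations bracketing the appropriate inhibition level. Abbreviation: GI50, concentration required for 50% inhibition of growth. The concentration for full growth arrest is given as TGI.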

Tests used:
Test in all cases: inhibition of tumour cell growth, NCI panel, 48 h
[1] = tested on: HCT-15 colon
[2] = tested on: DU-145 prostate
[3] = tested on: HS 578T breast
[4] = tested on: NCI-H226 lung
[5] = tested on: K-562 leukemia
[6] = tested on: SK-MEL-28 melanoma
[7] = tested on: SW-620 colon
[8] = tested on: NCI-H522 lung

SMILES	GI50 [1] [µM]	TGI [1] [µM]	GI50 [2] [µM]	TGI [2] [µM]	GI50 [3] [µM]	TGI [3] [µM]	GI50 [4] [µM]	TGI [4] [µM]	GI50 [5] [µM]	TGI [5] [µM]	GI50 [6] [µM]	TGI [6] [µM]	GI50 [7] [µM]	TGI [7] [µM]	GI50 [8] [µM]	TGI [8] [µM]
CC(C)(C)C(=O)OCOP(=O)(NCc1ccccc1)C1CCCN(O)C1=O (stereo not drawn)	2.75	25.9	4.03	> 100	1.28	6.64	0.462	3.43	1.13	> 100	1.74	5.68	2.87	> 100	1.78	21.9
Cc1nc([N+](=O)[O-])cn1-c1nc2ccccn2c1[N+](=O)[O-]		> 100		83.6		> 100		> 100		> 100		> 100		> 100		> 100
Cc1cc2c(C(=O)NC[C@H](C)c3ccccc3)c(O)c(O)cc2c(O)c1-c1c(C)cc2c(C(=O)NC[C@H](C)c3ccccc3)c(O)c(O)cc2c1O	0.208	12.6	0.3	14.3	0.274	2.56	0.244	0.987	0.17	7.69	0.437	4.41	0.482	5.7	0.288	1.18
O=c1c2c(nc3n1CCS3)[nH]c1cc([N+](=O)[O-])ccc12	> 100	> 100	> 100	> 100	> 100	> 100	> 100	> 100	> 100	> 100	> 100	> 100	> 100	> 100	> 100	> 100
OCC1C(OCc2ccccc2)C(OCc2ccccc2)C(OCc2ccccc2)CN1Cc1ccccc1 (stereo not drawn)		> 100		> 100		> 100		> 100		> 100		> 100		> 100		> 100
COc1cc(/C=C2\CC3C4CC=C5C[C@@H](OC(C)=O)CC[C@]5(C)C4CC[C@]3(C)C2=O)ccc1OCCN1CCCCC1 (stereo partly drawn)	1.29	3.25	5.18	17.4			11.8	28.6	1.23	3.31	3.24	> 100	3.18	7.32	7.28	25.7
CCc1ccc(Oc2c(-c3ccc(OCc4ccc(Cl)cc4)cc3O)n[nH]c2C(F)(F)F)cc1	1.6	3.21	2.64	7.44	2.66	8.11	2.11	5.26	2.32	5.37	1.82	3.37	2.05	4.45	1.72	4.33
Fc1ccc(-c2c(-c3ccncc3)nc3n2CCS3)cc1	> 25	> 25	> 25	> 25	> 25	> 25	> 25	> 25	> 25	> 25	> 25	> 25	> 25	> 25	> 25	> 25
C/C=C(\C)c1cc(=O)c2c(C)cc3c(c2o1)C(=O)c1c(O)c(C2CC(C)(N(C)C)C(OC(C)=O)C(C)O2)cc(C2CC(N(C)C)C(O)C(C)O2)c1C3=O (stereo not drawn)		12.2		> 50		18.6		5.57		> 50		8.41		> 27.7		1.16
O=C1NC(=C(Cl)Cl)/C(=N/S(=O)(=O)N2CCCCC2)N1	1.82	3.91	3.54	12.2	3.18	10.7	3.37	14.9			1.92	3.56	2.11	4.17	1.59	3.39
O=C(CSc1nc2c(n1Nc1ccccc1)-c1ccccc1SC2)Nc1nc(-c2ccc(Cl)cc2)cs1	> 100	> 100	> 100	> 100	6.35	78.7	29.9	> 100			> 100	> 100			5.73	> 100
O=c1c2ccccc2sc2c(NCCCNCCO)nc3ccccc3c12	1.57	3.52	1.6	3.33	1.67	5.65	1.41	2.95			1.81	3.52	1.31	2.74	1.82	3.57
Cc1ccc(O)c(NC(=O)c2cccc(Nc3ccnc(C(F)(F)F)c3)c2)c1	15.5	42.8	16.4	71.5	16.1	40.3	0.894	23.4			16	31.2	14.6	38.5	1.23	5.84
COc1ccc(C(=O)C(CN(C)C)CN(C)C)cc1	2.47	6.85	3.21	9.93	17.3	56.3	16.9	37.6			12.6	27.3	1.78	3.98		
CCOC(=O)c1cc(C(=O)c2ccc(OC)cc2)n2ccc(/C=C/c3cc[n+](CC(=O)c4ccc(OC)cc4)cc3)cc12	5.67	> 100	2.05	5.16					0.567	3.31	1.87	3.69	1.72	4.02		
OC(CNc1ccnc2cc(Cl)ccc12)CNc1ccnc2cc(Cl)ccc12	17.2	44.6	1.96	3.76	1.97	4.16	2.98	9.3					1.66	3.21		
NS(=O)(=O)OC[C@H]1C[C@@H](Nc2ccnc3cc(-c4cccc(SC(F)(F)F)c4)nn23)[C@H](O)[C@@H]1O	0.139	0.449	0.029	0.19	0.0351	1.95			< 0.014	1.23	0.0189	0.065	0.0422	1.37	0.0184	0.0363
